The text below walks through data of US20190255146A1, “POLYPEPTIDES FOR IMPROVED RESPONSE TO ANTI-CANCER THERAPY” (MUSC FOUNDATION FOR RESEARCH DEVELOPMENT, priority 2016, published 2019).

In experiment [1] the test system is CerS1. Kind of experiment: CerS1 localization, Western blotting of cytoplasm versus mitochondria enriched fractions of UM-SCC-47 cells. The format is cell-based. Particulars: cisplatin 1 and 4 h versus 0 h. The method, then: FIGS. 2A-G. HPV-E6 enhances chemotherapy-mediated cellular stress and CerS1/ceramide-mediated lethal mitophagy. (A-B) Effects of siRNA-mediated knockdown of HPV-E6/E7 on HPV(+) UM-SCC-47 cell death was assessed by MTT compared to Scr-siRNA-transfected and/or vehicle-treated controls. Successful knockdown of HPV-E6/E7 proteins were confirmed by Western blot analysis (B). […] (C) Effects of ectopic expression of HPV-E6 versus E7 on HPV(−) UM-SCC-22A cell death were measured by MTT. HPV-E6/E7 protein abundance was measured by Western blotting. […] (D) Effects of shRNA-mediated knockdown of CerS1 on mitophagy in response to cisplatin were measured by live cell imaging confocal micrographs of UM-SCC-47 cells stained with LTG and MTR. Scr-shRNA-transfected and/or vehicle-treated cells were used as controls. […] Images were quantified using ImageJ. (E) Cytoplasmic versus mitochondrial localization of CerS1 in the presence/absence of cisplatin at 0, 1, and 4 h was measured by Western blotting using anti-CerS1 antibody in cytoplasm (cyto)—versus mitochondria (mito)-enriched cellular fractions of UM-SCC-47 cells. Actin and Tom 20 were used as controls for cytoplasm- and mitochondria-enriched fractions, respectively. […] (F-G) Effects of shRNA-mediated knockdown of CerS6, confirmed by Western blotting (F), on UM-SCC-47 cell death in response to cisplatin were measured by trypan blue exclusion assay (G). […]
In general terms: In western blotting, separated proteins are transferred to a membrane and probed.

In experiment [2] the test system is Drp1. Kind of experiment: Drp1 oligomerization by Western blotting without reducing agents. The experiment is classed as cell-based. Particulars: HPV(+) UM-SCC47 cells. The procedure: FIGS. 7A-F. E2F5/Drp1 complex enhances HPV-E7/ceramide-dependent lethal mitophagy. (A) UM-SCC47 cells were treated with cisplatin or C18-pyr-cer and Western blotting was performed with cell lysates in the absence of reducing agents in the lysing buffer to detect monomeric and dimeric Drp1 protein abundance compared to vehicle-treated controls. Actin was used as a loading control. (B-C) Cell death was assessed by trypan blue exclusion assay in UM-SCC47 cells expressing dominant-negative Drp1 mutant (K38A-DRP1) and treated with C18-pyr-cer (B) or cisplatin (C) compared to vector-transfected controls. […] (D-E) Association between E2F5 and Drp1 in response to ceramide stress (C18-pyr-cer) was measured in UM-SCC-47 cells using PLA (D) or immunoprecipitation followed by Western blotting (E) with anti-Drp1 or anti-E2F5 antibodies. IgG was used as a control. […] PLA signals were quantified as described by the manufacturer using the PLA quantification software. […] Effects of siRNA-mediated HPV-E6/E7 knockdown on pRB, HPV-E7 and p53 protein abundance were also confirmed by Western blotting compared to Scr-siRNA-transfected controls in the absence/presence of C18-pyr-cer (right panel). Total RB was used a loading control (Rb band, upper panel).
Immunoblotting. Cells were lysed in RIPA buffer plus protease inhibitor cocktail on ice for 15 minutes then centrifuged. […]

Experiment [3] relates to UM-SCC-47-derived xenograft tumors. In words: HPV(+) UM-SCC-47-derived xenograft tumor growth in SCID mice. The experiment is classed as in vivo. Particulars: HPV(+) UM-SCC-47 xenografts, cisplatin 3.5 mg/kg for two weeks, tumor volumes days 0 and 14. The method, then: (§1) To determine whether HPV(+) compared to HPV(−) HNSCC cells are more sensitive to stress-mediated growth inhibition in response to chemotherapeutic drugs, it was first established HPV(+) UM-SCC-47- and HPV(−) UM-SCC-22A-derived xenograft tumors in SCID mice. After the xenograft-derived tumors were ˜75-100 mm^3, the mice were treated with cisplatin (3.5 mg/kg) for two weeks, which is below its maximum tolerated doses (van Moorsel et al, 1999). Then, tumor volumes were measured at days 0 and 14 of treatment. […] After tumor growth measurements in the mice were taken, the tumors were surgically removed and the effects of cisplatin on CerS1-6 mRNA were measured by qRT-PCR.
(§2) In vivo studies. […] Age- and sex-matched mice were used. […] Tumor volume was measured using calipers.

In experiment [4] the test system is CerS1-6 mRNA. Kind of experiment: CerS1-6 mRNA by qRT-PCR in HPV(+) UM-SCC-47 xenograft-derived tumors. The format is in vivo, mice. To be noted: day 14 versus day 0. The method, then: as §1
Quantitative RT-PCR. RNA was extracted from cell pellets using RNeasy kit (Qiagen) per the manufacturer's instructions. cDNA was generated using equal amounts of RNA from each sample and iScript cDNA synthesis kit (Bio-Rad) per manufacturer's instructions. Reactions were carried out using SsoFast probes mix (Bio-Rad) and TaqMan primer probes (ThermoFisher Scientific) in a StepOne Plus qPCR cycler as described by the manufacturer.
as §2
(In qPCR the cycle at which signal appears reflects the starting amount.)

Experiment [5] has as its system UM-SCC-22A-derived xenograft tumors. In words: HPV(−) UM-SCC-22A-derived xenograft tumor growth in SCID mice. The experiment is classed as in vivo. The method, then: as §1
Eight arginine residues (R8) were included on the N-terminus to enhance cell penetration of the E2F5 peptide (Rancher and Ryu, 2015).
In vivo studies. Severe combined immunodeficient (SCID) mice were purchased from Jackson Laboratories. Age- and sex-matched mice were used. All animal protocols were approved by the Institutional Animal Care and Use Committee at the Medical University of South Carolina. UM-SCC22A or UM-SCC47 cells (75,000) were implanted into the flanks of SCID mice (n=5-8 mice). When the tumors were palpable, the mice were treated every three days with 3.5 mg/kg cisplatin, 20 mg/kg C18-pyr-cer, or corresponding amount of vehicle control and/or 3.76 μg E2F5-peptide or scrambled control peptide. Tumor volume was measured using calipers. At the end of the 14-day treatment, the mice were euthanized and tumor tissues were collected (Sentelle et al, 2007; Saddoughi et al, 2013).

The subject of experiment [6] is LC3B. Kind of experiment: LC3B lipidation by Western blotting in UM-SCC-47 cell extracts. The format is cell-based. Particulars: UM-SCC-47 cells, versus vehicle. The procedure:
FIGS. 12A-C. Knockdown of autophagy inducer LC3 inhibits cisplatin-mediated cell death in HPV(+) HNSCC cells. (A) Induction of autophagy in response to cisplatin was assessed by detection of LC3B lipidation using Western blotting in HPV(+) UM-SCC-47 cell extracts with anti-LC3B antibody compared to vehicle (veh) treated controls. Actin was used as a loading control. […] Samples shown are from the same representative blot but not in contiguous lanes. (B-C) Effects of siRNA-mediated knockdown of LC3B on cisplatin-mediated cell death were measured and IC50 concentrations were calculated by MTT assays compared to Scr-siRNA-transfected controls. […] Si-RNA-mediated knockdown of LC3B was confirmed using Western blotting with anti-LC3B antibody compared to Scr-siRNA-transfected controls (C). Actin was used as a loading control.
(§3) Immunoblotting. Cells were lysed in RIPA buffer plus protease inhibitor cocktail on ice for 15 minutes then centrifuged. 30ug of protein from the supernatant were run on Criterion™ TGX™ Precast Gels (Bio-Rad).

Experiment [7] relates to UM-SCC-22A cells. Kind of experiment: Growth inhibition in culture, IC50 determination by MTT assay. The experiment is classed as cell-based. Particulars: UM-SCC-22A (HPV−) cells, 48 h; read-out: IC50 (concentration that inhibited growth by 50%). The procedure:
(§4) IC50 determination by MTT assay. Cells were plated in 96-well plates and allowed to adhere for 20 h, then treated with the indicated concentrations of drug. After 48 h treatment, the MTT assay (ATCC) was performed as described previously (Sentelle et al, 2012).
For orientation: Tetrazolium dyes change colour on reduction, which living cells bring about.

The test system of experiment [8] is UM-SCC-47 cells. The description is as above. The experiment is classed as cell-based. The procedure:
as §4

The target of experiment [9] is T1, Drp1 (Homo sapiens, UniProt O00429).
T1 construct: Western blotting using whole cell (UM-SCC-22A) lysates versus mitochondria-enriched fractions; endogenous in cells; host or cells: UM-SCC-22A
T1 sequence (O00429 whole entry): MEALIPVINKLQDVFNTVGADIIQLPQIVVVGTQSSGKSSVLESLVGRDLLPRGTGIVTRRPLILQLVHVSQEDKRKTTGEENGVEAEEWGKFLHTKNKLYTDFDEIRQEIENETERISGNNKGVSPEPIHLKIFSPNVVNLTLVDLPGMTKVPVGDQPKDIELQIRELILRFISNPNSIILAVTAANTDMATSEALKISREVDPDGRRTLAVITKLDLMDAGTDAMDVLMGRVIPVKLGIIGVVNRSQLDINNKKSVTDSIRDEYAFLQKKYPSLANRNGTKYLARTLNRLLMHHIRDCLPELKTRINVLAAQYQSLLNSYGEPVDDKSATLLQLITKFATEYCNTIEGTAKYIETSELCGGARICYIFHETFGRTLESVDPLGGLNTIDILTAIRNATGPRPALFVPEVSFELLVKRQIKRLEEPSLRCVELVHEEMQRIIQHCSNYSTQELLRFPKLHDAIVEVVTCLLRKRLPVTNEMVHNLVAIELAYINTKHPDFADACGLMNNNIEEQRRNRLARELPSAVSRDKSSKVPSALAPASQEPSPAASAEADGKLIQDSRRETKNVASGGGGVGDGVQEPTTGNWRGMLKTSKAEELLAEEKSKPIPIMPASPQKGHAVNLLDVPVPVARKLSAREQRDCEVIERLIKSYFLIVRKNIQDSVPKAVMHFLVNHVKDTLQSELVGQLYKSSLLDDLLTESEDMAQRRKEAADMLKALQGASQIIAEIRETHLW
Kind of experiment: Drp1 recruitment to mitochondria in HPV(−) UM-SCC-22A cells (Western blotting of mitochondria-enriched fractions). The experiment is classed as cell-based. Particulars: 5 uM peptide, 20 uM C18-pyr-cer, 1.5 hours. The procedure: Images were quantified using FIJI.
as §3
Cell fractionation. Cells were treated with 40 uM cisplatin or vehicle for eight hours, 20 uM C18-pyr-cer or vehicle and/or 5 uM scr-pept or E2F5-pept for 1.5 hours. Mitochondria isolation kit (ThermoFisher Scientific) was used as described by the manufacturer.

Experiment [10] has as its target T2, retinoblastoma protein (RB) (UniProt P06400 2-928, limits assumed).
T2 construct: whole, on cells; Endogenous intracellular protein, detected with anti-RB antibody; also called pRB
T2 sequence (looked up): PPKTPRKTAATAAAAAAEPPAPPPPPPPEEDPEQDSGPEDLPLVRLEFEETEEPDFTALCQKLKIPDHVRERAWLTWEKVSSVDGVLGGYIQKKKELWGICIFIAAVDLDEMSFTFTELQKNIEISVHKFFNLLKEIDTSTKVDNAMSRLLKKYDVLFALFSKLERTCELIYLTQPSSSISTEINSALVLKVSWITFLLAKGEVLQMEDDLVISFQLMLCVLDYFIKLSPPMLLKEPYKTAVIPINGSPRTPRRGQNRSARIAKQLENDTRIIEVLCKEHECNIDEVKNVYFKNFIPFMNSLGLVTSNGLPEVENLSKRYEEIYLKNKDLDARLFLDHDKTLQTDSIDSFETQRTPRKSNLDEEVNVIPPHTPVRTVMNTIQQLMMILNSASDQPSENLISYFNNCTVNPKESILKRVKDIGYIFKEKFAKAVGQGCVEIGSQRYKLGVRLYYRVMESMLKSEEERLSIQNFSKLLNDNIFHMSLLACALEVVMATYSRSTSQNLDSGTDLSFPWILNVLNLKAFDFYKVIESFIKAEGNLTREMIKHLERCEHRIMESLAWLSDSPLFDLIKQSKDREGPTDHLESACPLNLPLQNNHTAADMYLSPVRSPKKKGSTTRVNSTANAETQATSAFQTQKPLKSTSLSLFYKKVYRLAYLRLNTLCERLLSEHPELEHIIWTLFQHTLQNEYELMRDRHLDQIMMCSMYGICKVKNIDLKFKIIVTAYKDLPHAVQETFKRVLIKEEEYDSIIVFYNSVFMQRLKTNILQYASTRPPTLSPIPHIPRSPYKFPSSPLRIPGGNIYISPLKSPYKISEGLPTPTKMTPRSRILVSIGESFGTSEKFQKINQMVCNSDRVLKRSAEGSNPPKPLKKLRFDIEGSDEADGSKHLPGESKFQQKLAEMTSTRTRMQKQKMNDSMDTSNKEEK
Kind of experiment: PLA with anti-GFP and anti-RB antibodies, UM-SCC-22A cells. The text has this:
PLA images were quantified using the PLA software as described by the manufacturer. […] Vector-GFP was used as a control (right panel, C).

On to `N.N.[Cl][Pt][Cl]` [cisplatin], for which the “accumulation of CerS1 in mitochondria” value in [1] is recorded as “increased accumulation of CerS1 in mitochondria”. In experiment [2], the “Drp1 oligomerization and/or activation” value is on record as “Drp1 oligomerization and/or activation was observed”. The “inhibition of growth of xenografts in response to cisplatin” value in experiment [3] is about 75%. In addition, the “CerS1 and CerS6 mRNA in tumors” value in [4] is “induced CerS1 and CerS6 mRNA”. Further, the “tumor suppression of xenografts” value in [5] (HPV(−) UM-SCC-22A xenografts, cisplatin 3.5 mg/kg for two weeks) was “no detectable tumor suppression”. The “LC3B lipidation (marker of autophagy induction)” value in [6] is on record as “Increased LC3B lipidation”. In addition, the IC50 in experiment [7] stood at 28 µM; in experiment [8] (UM-SCC-47 (HPV+) cells, 48 h, read-out: IC50 (concentration that inhibited growth by 50%)), 8 µM. Further, the “reduction of cisplatin-mediated growth inhibition by knockdown of CerS1” value in [8] (UM-SCC-47 cells, CerS1 shRNA versus Scr-shRNA, MTT) is recorded as about 4 fold. In experiment [8] (UM-SCC-47 cells, HPV-E6/E7 siRNA versus Scr-siRNA, MTT), the “resistance to cisplatin-mediated growth inhibition upon knockdown of E6 and E7” value was about 8 fold. In addition, the “sensitivity for drug-induced growth inhibition/cell death, UM-SCC-47 compared to UM-SCC-22A cells” value in [8] (cells in culture) was about 3 fold.

Turning to “Biotin-RRRRRRRR-LILFVIKLHQDVNDMRNSNQDQTQSEDRESKWY [scr-pept]”, the “ceramide-induced Drp1 recruitment to mitochondria” value in experiment [9] is “not”. The tumor growth entry in experiment [5] (UM-SCC-22A xenografts, 3.76 μg peptide, absence/presence of cisplatin 3.5 mg/kg every 3 days for 2 weeks) was “no effect”.

B1: dimerization domain deleted mutant of E2F5, GFP-tagged (E2F5^Δ84-177-GFP) (other)
chain: MAAAEPASSGQQAPAGQGQGQRPPPQPPQAQAPQPPPPPQLGGAGGGSSRHEKSLGLLTTKFVSLLQEAKDGVLDLKAAADTLICNCFNGDTLLAIQAPSGTQLEVPIPEMGQNGQKKYQINLKSHSGPIHVLLINKESSSSKPVVFPVPPPDDLTQPSSQSLTPVTPQKSSMATQNLPEQHVSERSQALQQTSATDISSAGSISGDIIDELMSSDVFPLLRLSPTPADDYNFNLDDNEGVCDLFDVQILNY
notes: Ectopically expressed in cells; not shown: GFP tag
As to B1, the binding result in experiment [10] is given as “binds”.
